From BigSolDB 2.1

Details: in formic acid

OC1OC[C@@H](O)[C@H](O)[C@H]1O (some centres undefined)
solubility (mole fraction) (300.45 K): 0.13
solubility (mole fraction) (301.85 K): 0.139
solubility (mole fraction) (303.25 K): 0.146
solubility (mole fraction) (305.15 K): 0.154
solubility (mole fraction) (306.75 K): 0.161
solubility (mole fraction) (308.15 K): 0.168
solubility (mole fraction) (309.95 K): 0.175
solubility (mole fraction) (311.65 K): 0.182
solubility (mole fraction) (313.45 K): 0.191
solubility (mole fraction) (315.75 K): 0.2
solubility (mole fraction) (317.45 K): 0.208
solubility (mole fraction) (320.35 K): 0.223
solubility (mole fraction) (323.15 K): 0.237
solubility (mole fraction) (324.85 K): 0.244
